Values joined by “and” are separate entries in the source; they are usually repeats but may differ in a detail not shown here. Equal values may be shown once. Numbers after ± are expanded uncertainties.
What was measured:
[1] = 101 kPa, Liquid; for viscosity: Anton Paar Stabinger viscometer
[2] = xn = mol fraction of the nth substance listed; conditions: 101 kPa, Liquid; for viscosity: Anton Paar Stabinger viscometer

| SMILES | mass density ([1]; 288.15 K) | speed of sound ([1]; 288.15 K) | viscosity ([1]; 288.15 K) | mass density ([1]; 293.15 K) | speed of sound ([1]; 293.15 K) | viscosity ([1]; 293.15 K) | mass density ([1]; 298.15 K) | speed of sound ([1]; 298.15 K) | viscosity ([1]; 298.15 K) | mass density ([1]; 303.15 K) | speed of sound ([1]; 303.15 K) | viscosity ([1]; 303.15 K) | viscosity ([2]; 288.15 K, x2 = 0) | mass density ([2]; 288.15 K, x2 = 0) | speed of sound ([2]; 288.15 K, x2 = 0) | viscosity ([2]; 293.15 K, x2 = 0) | mass density ([2]; 293.15 K, x2 = 0) | speed of sound ([2]; 293.15 K, x2 = 0) | viscosity ([2]; 298.15 K, x2 = 0) | mass density ([2]; 298.15 K, x2 = 0) | also measured |
| --- | --- | --- | --- | --- | --- | --- | --- | --- | --- | --- | --- | --- | --- | --- | --- | --- | --- | --- | --- | --- | --- |
| Cc1ccccc1C [1,2-dimethylbenzene] | 883.285 ± 0.41 kg/m3 | 1390.3 ± 5.6 m/s | 0.871 ± 0.018 mPa·s | 879.083 ± 0.41 kg/m3 | 1369.7 ± 5.6 m/s | 0.81 ± 0.017 mPa·s | 875.532 ± 0.42 kg/m3 | 1349.4 ± 5.5 m/s | 0.756 ± 0.016 mPa·s | 870.726 ± 0.42 kg/m3 | 1328.3 ± 5.4 m/s | 0.708 ± 0.015 mPa·s |  |  |  |  |  |  |  |  |  |
| Cc1ccccc1C [1,2-dimethylbenzene] + COc1ccccc1 |  |  |  |  |  |  |  |  |  |  |  |  | 0.871 ± 0.018 mPa·s | 883.285 ± 0.41 kg/m3 | 1390.3 ± 5.6 m/s | 0.81 ± 0.017 mPa·s | 879.083 ± 0.41 kg/m3 | 1369.7 ± 5.6 m/s | 0.756 ± 0.016 mPa·s | 875.532 ± 0.42 kg/m3 | speed of sound ([2]; 298.15 K, x2 = 0): 1349.4 ± 5.5 m/s; viscosity ([2]; 303.15 K, x2 = 0): 0.708 ± 0.015 mPa·s; mass density ([2]; 303.15 K, x2 = 0): 870.726 ± 0.42 kg/m3; speed of sound ([2]; 303.15 K, x2 = 0): 1328.3 ± 5.4 m/s |
| Cc1cc(C)cc(C)c1 [1,3,5-trimethylbenzene] | 869.169 ± 0.42 kg/m3 | 1377.5 ± 5.6 m/s | 0.754 ± 0.023 mPa·s | 865.072 ± 0.43 kg/m3 | 1357 ± 5.5 m/s | 0.705 ± 0.021 mPa·s | 861.062 ± 0.44 kg/m3 | 1336.9 ± 5.5 m/s | 0.661 ± 0.02 mPa·s | 856.95 ± 0.44 kg/m3 | 1316.8 ± 5.4 m/s | 0.621 ± 0.019 mPa·s |  |  |  |  |  |  |  |  |  |
| Cc1cccc(C)c1 [1,3-dimethylbenzene] | 868.317 ± 0.37 kg/m3 | 1362.6 ± 5.5 m/s | 0.666 ± 0.014 mPa·s | 864.049 ± 0.38 kg/m3 | 1357 ± 25 m/s | 0.619 ± 0.013 mPa·s | 859.767 ± 0.38 kg/m3 | 1321 ± 5.4 m/s | 0.581 ± 0.012 mPa·s | 855.469 ± 0.39 kg/m3 | 1300.3 ± 5.3 m/s | 0.552 ± 0.011 mPa·s |  |  |  |  |  |  |  |  |  |
| Cc1cccc(C)c1 [1,3-dimethylbenzene] + COc1ccccc1 |  |  |  |  |  |  |  |  |  |  |  |  | 0.666 ± 0.014 mPa·s | 868.317 ± 0.37 kg/m3 | 1362.6 ± 5.5 m/s | 0.619 ± 0.013 mPa·s | 864.049 ± 0.38 kg/m3 | 1343.4 ± 5.4 m/s | 0.581 ± 0.012 mPa·s | 859.767 ± 0.38 kg/m3 | speed of sound ([2]; 298.15 K, x2 = 0): 1321 ± 5.4 m/s; viscosity ([2]; 303.15 K, x2 = 0): 0.552 ± 0.011 mPa·s; mass density ([2]; 303.15 K, x2 = 0): 855.469 ± 0.39 kg/m3; speed of sound ([2]; 303.15 K, x2 = 0): 1300.3 ± 5.3 m/s |
| Cc1ccc(C)cc1 [1,4-dimethylbenzene] | 865.253 ± 0.37 kg/m3 | 1352 ± 5.5 m/s | 0.701 ± 0.021 mPa·s | 860.917 ± 0.38 kg/m3 | 1331.1 ± 5.4 m/s | 0.65 ± 0.02 mPa·s | 856.617 ± 0.39 kg/m3 | 1310 ± 5.3 m/s | 0.611 ± 0.018 mPa·s | 852.255 ± 0.39 kg/m3 | 1289.7 ± 5.3 m/s | 0.576 ± 0.017 mPa·s |  |  |  |  |  |  |  |  |  |
| Cc1ccc(C)cc1 [1,4-dimethylbenzene] + COc1ccccc1 |  |  |  |  |  |  |  |  |  |  |  |  | 0.701 ± 0.021 mPa·s | 865.253 ± 0.37 kg/m3 | 1352 ± 5.5 m/s | 0.65 ± 0.02 mPa·s | 860.917 ± 0.38 kg/m3 | 1331.1 ± 5.4 m/s | 0.611 ± 0.018 mPa·s | 856.617 ± 0.39 kg/m3 | speed of sound ([2]; 298.15 K, x2 = 0): 1310 ± 5.3 m/s; viscosity ([2]; 303.15 K, x2 = 0): 0.576 ± 0.017 mPa·s; mass density ([2]; 303.15 K, x2 = 0): 852.255 ± 0.39 kg/m3; speed of sound ([2]; 303.15 K, x2 = 0): 1289.7 ± 5.3 m/s |
| COc1ccccc1 [anisole] | 998.441 ± 0.23 kg/m3 and 998.44 ± 0.23 kg/m3 | 1449.1 ± 5.8 m/s | 1.188 ± 0.024 mPa·s | 993.649 ± 0.23 kg/m3 and 993.653 ± 0.23 kg/m3 and 993.651 ± 0.23 kg/m3 | 1428.5 ± 5.7 m/s | 1.084 ± 0.022 mPa·s | 989.106 ± 0.24 kg/m3 [middle of 4 runs] | 1408 ± 5.7 m/s | 1.017 ± 0.021 mPa·s | 984.372 ± 0.24 kg/m3 and 984.37 ± 0.25 kg/m3 and 984.374 ± 0.24 kg/m3 | 1387.7 ± 5.6 m/s and 1386.7 ± 5.6 m/s | 0.931 ± 0.019 mPa·s |  |  |  |  |  |  |  |  |  |
| COc1ccccc1 [anisole] + Cc1cc(C)cc(C)c1 |  |  |  |  |  |  |  |  |  |  |  |  |  |  |  |  |  |  |  |  | viscosity ([2]; 288.15 K, x1 = 1): 1.188 ± 0.036 mPa·s; mass density ([2]; 288.15 K, x1 = 1): 998.44 ± 0.23 kg/m3; speed of sound ([2]; 288.15 K, x1 = 1): 1449.1 ± 5.8 m/s; viscosity ([2]; 293.15 K, x1 = 1): 1.084 ± 0.033 mPa·s; mass density ([2]; 293.15 K, x1 = 1): 993.651 ± 0.23 kg/m3; speed of sound ([2]; 293.15 K, x1 = 1): 1428.5 ± 5.7 m/s; viscosity ([2]; 298.15 K, x1 = 1): 1.017 ± 0.031 mPa·s; mass density ([2]; 298.15 K, x1 = 1): 989.106 ± 0.24 kg/m3; speed of sound ([2]; 298.15 K, x1 = 1): 1408 ± 5.7 m/s; viscosity ([2]; 303.15 K, x1 = 1): 0.931 ± 0.028 mPa·s; mass density ([2]; 303.15 K, x1 = 1): 984.37 ± 0.25 kg/m3; speed of sound ([2]; 303.15 K, x1 = 1): 1386.7 ± 5.6 m/s |
| c1ccccc1 [benzene] | 884.184 ± 0.35 kg/m3 | 1347.2 ± 5.5 m/s | 0.709 ± 0.015 mPa·s | 877.43 ± 0.36 kg/m3 | 1323.3 ± 5.4 m/s | 0.648 ± 0.013 mPa·s | 873.58 ± 0.36 kg/m3 | 1299.7 ± 5.3 m/s | 0.604 ± 0.012 mPa·s | 868.174 ± 0.37 kg/m3 | 1276.4 ± 5.2 m/s | 0.571 ± 0.012 mPa·s |  |  |  |  |  |  |  |  |  |
| c1ccccc1 [benzene] + COc1ccccc1 |  |  |  |  |  |  |  |  |  |  |  |  | 0.709 ± 0.015 mPa·s | 884.184 ± 0.35 kg/m3 | 1347.2 ± 5.5 m/s | 0.648 ± 0.013 mPa·s | 877.43 ± 0.36 kg/m3 | 1323.3 ± 5.4 m/s | 0.604 ± 0.012 mPa·s | 873.58 ± 0.36 kg/m3 | speed of sound ([2]; 298.15 K, x2 = 0): 1299.7 ± 5.3 m/s; viscosity ([2]; 303.15 K, x2 = 0): 0.571 ± 0.012 mPa·s; mass density ([2]; 303.15 K, x2 = 0): 868.174 ± 0.37 kg/m3; speed of sound ([2]; 303.15 K, x2 = 0): 1276.4 ± 5.2 m/s |
| Cc1ccccc1 [toluene] | 871.412 ± 0.33 kg/m3 | 1350 ± 5.4 m/s | 0.63 ± 0.013 mPa·s | 866.874 ± 0.34 kg/m3 | 1327.2 ± 5.4 m/s | 0.588 ± 0.012 mPa·s | 862.2 ± 0.35 kg/m3 | 1305.4 ± 5.3 m/s | 0.556 ± 0.011 mPa·s | 857.464 ± 0.35 kg/m3 | 1283.8 ± 5.2 m/s | 0.523 ± 0.011 mPa·s |  |  |  |  |  |  |  |  |  |
| Cc1ccccc1 [toluene] + COc1ccccc1 |  |  |  |  |  |  |  |  |  |  |  |  | 0.63 ± 0.013 mPa·s | 871.412 ± 0.33 kg/m3 | 1350 ± 5.4 m/s | 0.588 ± 0.012 mPa·s | 866.874 ± 0.34 kg/m3 | 1327.2 ± 5.4 m/s | 0.556 ± 0.011 mPa·s | 862.2 ± 0.35 kg/m3 | speed of sound ([2]; 298.15 K, x2 = 0): 1305.4 ± 5.3 m/s; viscosity ([2]; 303.15 K, x2 = 0): 0.523 ± 0.011 mPa·s; mass density ([2]; 303.15 K, x2 = 0): 857.464 ± 0.35 kg/m3; speed of sound ([2]; 303.15 K, x2 = 0): 1283.8 ± 5.2 m/s |

Source: the NIST ThermoML archive (doi:10.1021/je060170c)
